Structures can show the parent of a compound that is named as a salt.

One experiment concerns amyloid β production in transfected H4 (human neuroglioma) cells stably expressing APP constructs. The experiment is described as follows: In vitro cell-based assay of inhibitors of amyloid β production (ELISA). The note with it: Homo sapiens, 16 h, transfected H4 cells expressing APP, approximately 16 hours incubation, amyloid β in medium by ELISA; read-out: ACTIVITY (IC50, inhibition of amyloid β production). In a few lines: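 Transfected H4 cells stably expressing wild-type or variant APP were exposed to compounds (initial screen 10-100 μM) for about 16 h. Secreted Aβ in the medium was quantified by sandwich ELISA (C-terminal-specific monoclonal capture, N-terminal-specific polyclonal detection) against an Aβ standard curve; dose-response runs followed for actives.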
On the technique in general: An ELISA detects its analyte on a solid surface through an enzyme-linked reagent.
Broadly, the IC50 is the concentration that inhibits the measured activity by half. Turning to `C[C@H](C(=O)NCCN1CCCCC1)N(c1cc(Cl)ccc1F)S(=O)(=O)c1ccc(Cl)cc1` [Example 1352], the IC50 was more than 0.5 µM.
Take `C[C@H](C(=O)N(CCN)c1ccc([N+](=O)[O-])cn1)N(c1cc(Cl)ccc1F)S(=O)(=O)c1ccc(Cl)cc1` [Example 1354]: the IC50 was more than 0.5 µM.

Still in this experiment, the particulars now being: Homo sapiens, 16 h, transfected H4 cells stably expressing APP constructs; approximately 16 hours incubation; amyloid β in medium by ELISA; read-out: ACTIVITY (IC50, inhibition of amyloid β production).
Regarding `C[C@H](CCCS(=O)(=O)N(C)C)N(c1cc(Cl)ccc1CO)S(=O)(=O)c1ccc(Cl)cc1` [Example 1234, 4-chloro-N-[5-chloro-2-(hydroxymethyl)phenyl]-N-[4-[(dimethylamino)sulfonyl]-1(R)-methylbutyl]benzenesulfonamide], the IC50 was not above 0.025 µM.
`CC(=O)NCCC[C@@H](C)N(c1cc(Cl)ccc1Cl)S(=O)(=O)c1ccc(Cl)cc1` [Example 1113, 4-chloro-N-(2,5-dichlorophenyl)-N-[4-(acetylamino)-1(R)-methylbutyl]benzenesulfonamide]: the half-maximal inhibitory concentration (IC50) fell in the range of 0.025 to 0.05 µM.
On the same count and under the same terms, in the case of `CC(C)CNS(=O)(=O)CCC[C@@H](C)N(c1cc(Cl)ccc1Cl)S(=O)(=O)c1ccc(Cl)cc1` [Example 1216, 4-chloro-N-[2,5-dichlorophenyl]-N-[4-[(2-methylpropylamino)sulfonyl]-1(R)-methylbutyl]benzenesulfonamide] it was 0.05 to 0.1 µM.
Same read-out and setting: in the case of `O=S(=O)(c1ccc(Cl)cc1)N(Cc1ccccc1OCc1ccccn1)c1ccccc1` [Example 1092, 4-chloro-N-phenyl-N-[2-(2-pyridinylmethoxy)benzyl]benzenesulfonamide hydrochloride] it was more than 10 µM.

The same experiment, now with this note: Homo sapiens, 16 h, transfected H4 cells stably expressing APP; approx. 16 h incubation; amyloid β in medium by ELISA; read-out: ACTIVITY (IC50, inhibition of amyloid β production).
With `CC(c1ccccc1OCCCN(C)S(=O)(=O)c1ccc(I)cc1)N(c1cc(F)ccc1F)S(=O)(=O)c1ccc(Cl)cc1` (stereo not drawn) [Example 692, 4-chloro-N-(2,5-difluorophenyl)-N-[1-(2-{3-[[(4-iodophenyl)sulfonyl](methyl)amino]propoxy}phenyl)ethyl]benzenesulfonamide], the concentration for half-maximal inhibition (IC50) was in the range of 0.1 to 0.5 µM.
With `O=S(=O)(c1ccc(Cl)cc1)N(Cc1ccccc1OCCCN1CC=CCC1)c1ccccc1` [Example 749, 4-chloro-N-{2-[3-(3,6-dihydro-1(2H)-pyridinyl)propoxy]benzyl}-N-phenylbenzenesulfonamide hydrochloride], the IC50 was in the range of 0.1 to 0.5 µM.

The same experiment, now with this note: Homo sapiens, 16 h, transfected H4 cells stably expressing APP; approximately 16 hours incubation; amyloid β in medium by ELISA; read-out: ACTIVITY (IC50, inhibition of amyloid β production).
For `O=S(=O)(c1ccc(Cl)cc1)N(Nc1cc(F)ccc1F)[C@H](CO)c1ccccc1` [Example 868, 4-chloro-N-(2,5-difluoroanilino)-N-[(1S)-2-hydroxy-1-phenylethyl]benzenesulfonamide], the concentration for half-maximal inhibition (IC50) was 0.1 to 0.5 µM.
On the same count and under the same terms, for `CN(C)CCCOc1ccccc1CN(c1ccccc1)S(C)(=O)=O` [Example 1082, N-{2-[3-(dimethylamino)propoxy]benzyl}-N-phenylmethanesulfonamide] the value was more than 10 µM; for `CC(c1ccccc1O)N(c1cc(F)ccc1F)S(=O)(=O)c1ccc(Cl)cc1` (stereo not drawn) [Example 1052, 4-chloro-N-(2,5-difluorophenyl)-N-[1-(2-hydroxyphenyl)ethyl]benzenesulfonamide], more than 0.5 µM.
Still for that read-out and setting: in the case of `O=S(=O)(c1ccc(Cl)cc1)N(Cc1ccccc1OCCCN1CCCCC1)CC1CCC1` [Example 827, 4-chloro-N-(cyclobutylmethyl)-N-{2-[3-(1-piperidinyl)propoxy]benzyl}benzenesulfonamide hydrochloride] it was 0.1 to 0.5 µM; in that of `COc1ccc(SCCCOc2ccccc2CN(c2cc(F)ccc2F)S(=O)(=O)c2ccc(Cl)cc2)cc1` [Example 1029, 4-chloro-N-(2,5-difluorophenyl)-N-(2-{3-[(4-methoxyphenyl)sulfanyl]propoxy}benzyl)benzenesulfonamide], more than 0.5 µM.

Still in this experiment, the particulars now being: transfected H4 cells stably expressing APP constructs; approximately 16 hours incubation; amyloid β in medium by ELISA; read-out: ACTIVITY (IC50, inhibition of amyloid β production).
As for `C[C@H](COC(=O)NCCCn1cnnn1)N(c1cc(Cl)ccc1Cl)S(=O)(=O)c1ccc(Cl)cc1` [Example 1248, 4-Chloro-N-(2,5-dichlorophenyl)-N-[2-[[N′-[3-(1H-tetrazol-1-yl)propylamino]carbonyl]oxy]-(R)-1-methylethyl]benzenesulfonamide], the IC50 was not above 0.025 µM.
The same measure, in the same setting: in the case of `COC(=O)CS(=O)(=O)CC[C@@H](C)N(c1cc(Cl)ccc1Cl)S(=O)(=O)c1ccc(Cl)cc1` [Example 1191, methyl(6R)-6-[(2,5-dichlorophenyl)-[(4-chlorophenyl)sulfonyl]-amino]-3-thioheptanoic acid, 3,3-dioxide] it was 0.1 to 0.5 µM.
On the same count and under the same terms, in the case of “4-[2-({[(2-nitrophenyl)sulfonyl]anilino}methyl)phenyl]butanoic acid [Example 1097]” it was more than 10 µM; in that of `CSC1CCN(CC[C@@H](C)N(c2cc(Cl)ccc2Cl)S(=O)(=O)c2ccc(Cl)cc2)CC1` [Example 1156, 4-chloro-N-(2,5-dichlorophenyl)-N-[3-[(4-methylthio)-1-piperidinyl]-1(R)-methylpropyl]benzenesulfonamide], 0.1 to 0.5 µM.
Still for that read-out and setting: in the case of `CC1CS(=O)(=O)CCN1C(=O)CCCC[C@@H](C)N(c1cc(Cl)ccc1F)S(=O)(=O)c1ccc(Cl)cc1` (stereo partly drawn) [Example 1273] it was not above 0.025 µM; in that of `CCOC(=O)CCCc1ccccc1CN(c1ccccc1)S(=O)(=O)c1ccccc1[N+](=O)[O-]` [Example 1096, ethyl 4-[2-({[(2-ntrophenyl)sulfonyl]anilino}methyl)phenyl]butanoate], more than 10 µM; in that of `CC(C)[C@H](NC(=O)CCCC[C@@H](C)N(c1cc(Cl)ccc1F)S(=O)(=O)c1ccc(Cl)cc1)C(=O)O` [Example 1262, (R)-4-Chloro-N-(5-chloro-2-fluorophenyl)-N-[6-[N-(S)-[1-(carboxy)-2-methylpropyl]amino]-1-methyl-6-oxohexyl]benzenesulfonamide], not above 0.025 µM.
In the case of `CSCCC[C@@H](C)N(c1cc(Cl)ccc1F)S(=O)(=O)c1ccc(Cl)cc1` [Example 1178, 4-chloro-N-[5-chloro-2-fluorophenyl]-N-[1(R)-methyl-(4-methylthio)butyl]benzenesulfonamide], the IC50 is not above 0.025 µM.

Still in this experiment, the particulars now being: transfected H4 cells stably expressing APP; approx. 16 h incubation; amyloid β in medium by ELISA; read-out: ACTIVITY (IC50, inhibition of amyloid β production).
Regarding “N-{3-[2-(1-{[(4-chlorophenyl)sulfonyl]-2,5-difluoroanilino}ethyl)phenoxy]propyl}-3-nitrobenzamide [Example 723]”, the IC50 fell in the range of 0.1 to 0.5 µM.
The same measure, in the same setting: in the case of “2-((1R)-1-{[(4-chlorophenyl)sulfonyl]-2,5-difluoroanilino}ethyl)-5-fluorobenzyl sec-butylcarbamate [Example 795]” it was 0.1 to 0.5 µM.

The same experiment, now with this note: transfected H4 cells stably expressing APP; approximately 16 hours incubation; amyloid β in medium by ELISA; Table B; read-out: ACTIVITY (IC50, inhibition of amyloid β production).
Turning to `CC(c1ccccc1OCCCC(=O)O)N(c1cc(F)ccc1F)S(=O)(=O)c1ccc(Cl)cc1` (stereo not drawn) [Example 377, 4-[2-(1-{[(4-Chlorophenyl)sulfonyl]-2,5-difluoroanilino}ethyl)phenoxy]butanoic Acid], the concentration for half-maximal inhibition (IC50) is 0.05 to 0.1 µM.
Regarding `O=S(=O)(c1ccc(Cl)cc1)N(Cc1cc(Cl)ccc1OCCCN1CCC(O)CC1)c1ccccc1` [Example 309, 4-Chloro-N-{5-chloro-2-[3-(4-hydroxy-1-piperidinyl)propoxy]benzyl}-N-phenylbenzenesulfonamide Hydrochloride], the IC50 was 0.05 to 0.1 µM.
On the same count and under the same terms, in the case of `O=S(=O)(c1ccc(Cl)cc1)N(Cc1ccccc1OCCCn1ccnc1)c1ccccc1` [Example 302, 4-Chloro-N-{2-[3-(1H-imidazol-1-yl)propoxy]benzyl}-N-phenylbenzenesulfonamide Hydrochloride] it was 0.05 to 0.1 µM; in that of `O=S(=O)(c1ccc(Cl)cc1)N(Cc1ccccc1OCCC[N+]1([O-])CCCC1)c1cc(F)ccc1F` [Example 507], 0.1 to 0.5 µM; in that of `O=S(=O)(c1ccccc1)N(Cc1ccccc1OCCCN1CCC(O)C1)c1ccccc1` (stereo not drawn) [Example 279, N-{2-[3-(3-hydroxy-1-pyrrolidinyl)propoxy]benzyl}-N-phenylbenzenesulfonamide Hydrochloride], 0.025 to 0.05 µM.

Staying with this experiment, now noted: transfected H4 cells stably expressing APP; approximately 16 hours incubation; amyloid β in medium by ELISA; read-out: ACTIVITY (IC50, inhibition of amyloid β production).
Consider “3-bromo-N-{3-[2-(1-{[(4-chlorophenyl)sulfonyl]-2,5-difluoroanilino}ethyl)phenoxy]propyl}-N-methylbenzenesulfonamide [Example 806]”, for which the IC50 lay within 0.1 to 0.5 µM.
For “N-{3-[2-(1-{[(4-chlorophenyl)sulfonyl]-2,5-difluoroanilino}ethyl)phenoxy]propyl}-4-(trifluoromethoxy)benzamide [Example 920]”, the IC50 was more than 0.5 µM.
Still for that read-out and setting: in the case of `CC(C)CC(C)C(=O)N(C)CCOc1ccccc1C(C)N(c1cc(F)ccc1F)S(=O)(=O)c1ccc(Cl)cc1` (stereo not drawn) [Example 930, N-{2-[2-(1-{[(4-chlorophenyl)sulfonyl]-2,5-difluoroanilino}ethyl)phenoxy]ethyl}-N,2,4-trimethylpentamide] it was more than 0.5 µM.
Still for that read-out and setting: for “3,4-dichloro-N-{3-[2-(1-{[(4-chlorophenyl)sulfonyl]-2,5-difluoroanilino}ethyl)phenoxy]propyl}-N-methylbenzamide [Example 847]” the value was 0.1 to 0.5 µM; for `O=S(=O)(c1ccc(Cl)cc1)N(Cc1c(OCCCN2CCCCC2)ccc2ccccc12)c1cc(F)ccc1F` [Example 1025, 4-chloro-N-(2,5-difluorophenyl)-N-(2-{2-[3-(1-piperidinyl)propoxy]-1-naphthyl}methyl)benzenesulfonamide hydrochloride], more than 0.5 µM.

Values taken from US6967196B1, “Sulfonamide compounds and uses thereof” (Bristol-Myers Squibb Company, priority 1999, dated 2005).
